In patent US12404303B2, “Polypeptide and use thereof” (NANJING ANJI BIOLOGICAL TECHNOLOGY CO., LTD., priority 2019, dated 2025):
No end group written: not given here.

Assays:
pulmonary infections = experiment: Mouse pneumonia model, pneumonia caused by pulmonary infections; type: in vivo, BALB/C mice; conditions: average values±standard deviation
Source text: (§1) A mouse pneumonia model was successfully established by using a nasal drip method. BALB/C mice with a body weight of 18-24 g were selected, and then anesthetized with ether on day 0, day 1 and day 2, respectively, prepared streptococcus pneumoniae bacteria solution, adenovirus concentrated solution, mycoplasma pneumoniae, chlamydia pneumoniae, protozoa and pneumonia fungi were slowly dropped into the nasal cavity of the mice, so that the bacteria solutions entered the trachea and bronchi, and the bacteria solutions were prevented from flowing into the esophagus during the operation to avoid inactivation of the bacteria solutions, so that the mouse pneumonia model was established. After the model was successfully established, the polypeptide according to the present disclosure was administered, as shown in FIG. 7 and Table 9. […] The experimental results are represented on the basis of average values±standard deviation.

streptococcus pneumoniae = experiment: Mouse pneumonia model, bacterial pneumonia; type: in vivo, BALB/C mice; conditions: average values±standard deviation
Source text: as §1

myelofibrosis model mice = experiment: Myelofibrosis model induced by rh EPO; type: in vivo, Kunming mice; set-up: WBC / Hb / MCV / RDW: unit not given here; conditions: 10 mg/kg subcutaneous twice a day, 28 days
Procedure: There were 10 mice in each group. The normal control group was injected with normal saline (0.3 mL for each mouse), and the remaining groups were injected with rh EPO (0.1 unit/gram, body weight, 0.3 mL for each mouse) intraperitoneally every day. After induction for two days, drug therapy was started, subcutaneous injection was given twice a day, and after continuous administration for 28 days, the mouse heart was punctured for blood extraction, some blood was used for peripheral blood analysis, some blood was centrifuged, and the supernatant was taken to measure the content of TGF-β1 in the serum of mice. [table]

[1] = system: SD rats with bleomycin-induced pulmonary fibrosis; experiment: Bleomycin-induced pulmonary fibrosis animal model; type: in vivo; conditions: bleomycin 5 mg/kg intratracheal, polypeptides 7.5 mg/kg subcutaneous twice a day, positive drug 25 mg/kg intragastric once a day, 14 days
Procedure: SD rats were anesthetized by intraperitoneal injection of 1 mL/100 g 4% chloral hydrate. After anesthesia, the rats were fixed and their necks were disinfected by using cotton with 75% alcohol. The skin of the rat neck was longitudinally cut with scissors, and the fascia and muscle were longitudinally bluntly torn with tweezers to expose the trachea. A syringe was inserted into the trachea to inject 5 mg/kg bleomycin, while a blank group was injected with an equal amount of normal saline. Then a rat plate was quickly erected and rotated, the rats' breathing was observed, the neck wound was sterilized after rotation and was sewn, and an amoxicillin anti-inflammatory drug was sprinkled on the suture. After the operation, the rats were put back into a dry and clean cage for resting, waiting was performed for awakening. The rats were awakened after about 1-2 hours, and then fed normally. On the 7th day after modeling, modeling group animals randomly fell into a model group, a Nintedanib positive drug group, polypeptide I, II, III and IV dosage groups, and a normal control group, and the groups were administered separately for an administration cycle of 14 days. Living situations of rats were observed every day and their weights were weighed.

adenovirus = experiment: Mouse pneumonia model, viral pneumonia; type: in vivo, BALB/C mice; conditions: average values±standard deviation
Source text: as §1

protozoa = experiment: Mouse pneumonia model, protozoal pneumonia; type: in vivo, BALB/C mice; conditions: average values±standard deviation
Source text: as §1

LX-2 cells = experiment: Proliferation of LX-2 cells induced by TGF-β1 (MTT, in vitro hepatic fibrosis model); type: cell-based; conditions: polypeptide 1 μmol/L, TGF-β1 10 ng/mL, 48 hours
Procedure: LX-2 cells were cultured in 1640 medium containing 10% FBS, and cultured in an incubator with 5% CO2 at 37° C. The medium was replaced every two days, and subcultured according to the cell density. The LX-2 cells in a logarithmic growth phase were digested with 0.25% pancreatin to make cell suspension. The density of the cells was adjusted to 4×10^5 cells/mL, and the cells were inoculated into 96-well plates with 100 μL per well and cultured overnight. On the second day, TGF-β1 was added to induce the proliferation and activation of the LX-2 cells, and the polypeptide drugs were administrated at 1 μmol/L. TGF-β1 (10 ng/mL) was added to each group except the blank group. The cells were cultured in the incubator for 48 hours, and then 10 μL of MTT was added to each well. The MTT was removed after 4 hours, and 150 μL of DMSO was added for reaction for 5 min. An OD value was measured by a microplate reader at 570 nm.

skin fibrosis model mice = experiment: Skin fibrosis model induced by bleomycin, HYP in skin tissue; type: in vivo, C57/BL black mice; conditions: skin tissue of the mouse back; 10 mg/kg subcutaneous twice a day, 28 days, vs model group; FIG. 6
Procedure: Bleomycin (10 μg/mL) was injected subcutaneously every day for 28 days to form skin fibrosis. During the modeling period, the administration groups were given polypeptide drugs every day for treatment, with 10 mice in each group. After modeling, the mice were killed on the next day, and the skin tissue of the mouse back was taken to detect the content of HYP in the skin tissue. [table]

[2] = system: cardiac fibroblasts of rats; experiment: Proliferation of cardiac fibroblasts of rats (MTT, in vitro myocardial fibrosis model); type: cell-based; conditions: 1 μmol/L
Procedure: The inhibitory effect of a polypeptide on cardiac fibroblasts of rats was detected by MTT assay. Cells were cultured in a DMEM medium containing 10% of FBS, the cytoplasm was made into 1×10^5/mL cell suspension, and 100 μL per well was inoculated into a 96-well plate. After the cells adhered to the wall, the medium was replaced with a serum-free DMEM medium, and the serum-free medium was discarded after 24 hours. The cells were cultured with different polypeptides of 1 μmol/L, and 5 multiple wells were set for each concentration. After 12, 24 and 48 hours separately, 10 μL of MTT was added to each well. After 4 hours, MTT was sucked out, and 150 μL of DMSO was added to each well. After reaction for 5 min, an OD value was measured at 570 nm by a microplate reader.

pneumonia fungi = experiment: Mouse pneumonia model, fungal pneumonia; type: in vivo, BALB/C mice; conditions: average values±standard deviation
Source text: as §1

chlamydia pneumoniae = experiment: Mouse pneumonia model, chlamydia pneumonia; type: in vivo, BALB/C mice; conditions: average values±standard deviation
Source text: as §1

[3] = system: SD rats with renal fibrosis; experiment: Renal fibrosis animal model (ureter ligation), TGF-β1 in serum; type: in vivo; conditions: 7.5 mg/kg subcutaneous twice a day, 14 days, vs model group; FIG. 4
Procedure: A renal fibrosis animal model was established. SD rats were anesthetized with 4% chloral hydrate, injected with 1 mL/100 g intraperitoneally, fixed to an operation board, and sterilized in an operation area for later use. […] Muscular layers and abdominal walls were sewed layer by layer, the suture was disinfected with alcohol. After SD rats woke up, the rats were put into a cage for feeding. In the blank group, ureter was not ligated, and other steps were the same. Then, the animals fell into a blank group, a model group, and polypeptide administration groups, and the administration was started on the second day after the operation, twice a day for 14 days. After administration for 14 days, blood was taken and supernatant was taken to detect the content of TGF-β1 in serum. [table]

mycoplasma pneumoniae = experiment: Mouse pneumonia model, mycoplasma pneumonia; type: in vivo, BALB/C mice; conditions: average values±standard deviation
Source text: as §1

Which results are given for “RGADRAGGGGPRCYCGE (cysteine pairing not given here) [Polypeptide IV]”?
Inhibitory effect on pulmonary infections, Pneumonia caused by pulmonary infections (pulmonary infections): 55.57 ± 4.25; Inhibitory effect on pulmonary infections, Bacterial pneumonia (streptococcus pneumoniae): 45.05 ± 3.25; content of TGF-β1 in serum (myelofibrosis model mice; mouse serum, vs model group, FIG. 5): highly significantly different from the model group (**P<0.01); Hb (myelofibrosis model mice; peripheral blood): 155 ± 16; MCV (myelofibrosis model mice; peripheral blood): 54 ± 5; RDW (myelofibrosis model mice; peripheral blood): 24 ± 1; WBC (myelofibrosis model mice; peripheral blood): 5.83 ± 1.07; Survival rate (%) [1]: 92.9%; Inhibitory effect on pulmonary infections, Viral pneumonia (adenovirus): 58.07 ± 2.07; Inhibitory effect on pulmonary infections, Protozoal pneumonia (protozoa): 49.04 ± 3.17; inhibition of proliferation and activation of LX-2 cells, difference from model group (LX-2 cells): significantly different from the model group (*P<0.05); OD value (LX-2 cells; MTT, 570 nm): 0.64 ± 0.03; expression of HYP in the skin tissue (skin fibrosis model mice): highly significantly different from the model group (*P<0.05); Optical density values, 12 hours ([2]; 12 hours, MTT, 570 nm): 0.309 ± 0.010; Optical density values, 24 hours ([2]; 24 hours, MTT, 570 nm): 0.385 ± 0.008; Optical density values, 48 hours ([2]; 48 hours, MTT, 570 nm): 0.598 ± 0.013; inhibition of the proliferation of cardiac fibroblasts of rats ([2]; at 24 hours and 48 hours): could inhibit the proliferation; Inhibitory effect on pulmonary infections, Fungal pneumonia (pneumonia fungi): 48.61 ± 3.22; Inhibitory effect on pulmonary infections, Chlamydia pneumonia (chlamydia pneumoniae): 38.85 ± 3.11; content of TGF-β1 in serum [3]: highly significantly different from the model group (**P<0.01); Inhibitory effect on pulmonary infections, Mycoplasma pneumonia (mycoplasma pneumoniae): 43.27 ± 5.63
